Test results reported in ChEMBL document CHEMBL1157539, “Thousands of chemical starting points for antimalarial lead identification” (Nature, 2010).

Each compound was assayed on Plasmodium falciparum (assay: GSK_TCMDC: Inhibition of Plasmodium falciparum 3D7 in whole erythrocytes, using parasite LDH activity as an index of growth.). Conditions: not given.
Type: functional, organism-based

| Structure (SMILES) | XC50 |
| --- | --- |
| O=C(/C=C/c1cccc(Cl)c1)NC1CCC(CN2CCC(c3c[nH]c4ccccc34)CC2)CC1 (stereo not drawn) | 721 nM |

Same assay, conditions: Plasmodium falciparum, 3D7

| Structure (SMILES) | XC50 |
| --- | --- |
| CC(C)(C)OC(=O)N1CCC(C2CCN(C(=O)OC(C)(C)C)CC2)CC1 | 1160 nM |
| CC[C@H]1CN2CC[C@@H]1C[C@H]2[C@H](O)c1ccnc2ccc(OC)cc12 | 225 nM |
| CN(C)CCN(C)Cc1ccc(-c2ccc(NC(=O)c3cccc(C#N)c3)cc2)cc1 | 1270 nM |
| O=C(Nc1cccc(CN2CCCN(CCc3ccccc3)CC2)c1)c1ccc(Cl)c(Cl)c1 | 952 nM |
| Cc1cc2c(NC(=O)NC3CCN(Cc4ccc(Cl)c(Cl)c4)CC3)cccc2cn1 | 681 nM |
| CC(CCCCCC(=O)Nc1ccc(CC(C)NCCc2cccc(Cl)c2)cc1)NCCc1cccc(Cl)c1 (stereo not drawn) | 948 nM |
| O=C(/C=C/c1cccc(Cl)c1)NC1CCC(CN2CCC(c3c[nH]c4ccccc34)CC2)CC1 (stereo not drawn) | 752 nM |
| CC[C@H](C)[C@H](NC(=O)[C@H](CC1CCCCC1)[C@H](CC)N(O)C=O)C(=O)Nc1ccccn1 | 176 nM |
| CN1Cc2cc(NC(=O)/C=C/c3ccccc3Cl)ccc2C(C)(C)C1 | 641 nM |
| O=C(NC1CCN(Cc2ccc3c(c2)OCCO3)CC1)c1ccc(-c2cccc(Cl)c2)s1 | 1910 nM |
| CC(C)[C@H](NC(=O)c1c(F)cccc1F)C(=O)Nc1ccc(Cc2nc3ccccc3s2)cc1 | 498 nM |
| COc1ccc2nc(C)cc(Nc3ccc(Oc4ccc(Br)c5ccccc45)c(Cl)c3)c2c1 | 277 nM |
| Clc1ccc(CNC2CCN(CC3CCCCC3)CC2)cc1 | 1110 nM |
| Cc1cccc2nc(-c3cccc(-c4cccc(NC(=O)C(C)CN(C)C)c4)c3)[nH]c12 (stereo not drawn) | 413 nM |
| O=C(/C=C/c1ccc(Cl)c(Cl)c1)NC1CCC(CN2CCC(c3c[nH]c4ccccc34)C(O)C2)CC1 (stereo not drawn) | 719 nM |
| CC(=O)Nc1ccc(C(=O)Nc2cccc(-c3csc(-c4nc5ccccc5[nH]4)c3)c2)cn1 | 119 nM |
| CCN(CC)CCN(Cc1ccc(-c2ccc(C(F)(F)F)cc2)cc1)C(=O)Cn1c(CCc2ccc(F)c(F)c2)cc(=O)c2ccccc21 | 890 nM |
| COc1ccc(-c2nc(NC(=O)Cc3ccc4c(c3)OCCO4)sc2C)cc1 | 245 nM |
| COc1ccc(C2CC(=O)C3=C(C2)NC(C)=C(C(=O)OC(C)C)C3c2cccc(O)c2)cc1OC (stereo not drawn) | 785 nM |
| O=C(Nc1ccc(Cl)c(-c2nc3ccccc3[nH]2)c1)c1ccc(-c2ccc(Cl)cc2)o1 | 785 nM |
| COc1ccc(-c2cnc(NCc3ccccc3)nc2)cc1CNC1CCN(C)CC1 | 782 nM |
| CN(C)CCOc1cc(NC(=O)Nc2ccc(-c3ccncc3)c3ccccc23)ccc1I | 777 nM |
| OC(CN1CCN(c2cccc(Cl)c2)CC1)C(c1ccccc1)c1ccccc1 (stereo not drawn) | 1150 nM |

| Structure (SMILES) | XC50 |
| --- | --- |
| O=C1c2ccc([N+](=O)[O-])cc2C(=O)N1c1ccc2[nH]ncc2c1 | 1150 nM |
| CN1CCN(CCCN(Cc2ccc(-c3cccc(CNCc4ccc5c(c4)OCO5)c3)cc2)C(=O)Nc2ccccc2)CC1 | 183 nM |
| COc1cccc(NC(=O)Nc2cc(-c3ccc4[nH]ncc4c3)cc3c2CNC3=O)c1 | 117 nM |
| COC(=O)c1cc(/C(C)=N/Nc2nc3ccccc3[nH]2)ccc1O | 676 nM |
| CC1CCCCN1CCCNC(=O)c1cccc(-c2cc3cc(Cl)c(Cl)cc3[nH]2)c1 (stereo not drawn) | 881 nM |
| COc1cc(OCCCN(C)Cc2ccc(OC)c(OC)c2)ccc1NC(=O)c1cccc2c(O)c3cccc(F)c3nc12 | 891 nM |
| CS(=O)(=O)c1ccc(CNCc2cccc(-c3ccc(-c4nc5cc(C(F)(F)F)ccc5[nH]4)cc3)c2)cc1 | 513 nM |
| COc1ccccc1C1CCN(C2CCC(NC(=O)/C=C/c3cc(C(F)(F)F)cc(C(F)(F)F)c3)CC2)CC1 (stereo not drawn) | 1200 nM |
| O=C(Nc1n[nH]c2nc(-c3ccco3)c(Br)cc12)c1ccc(CN2CCCC2)cc1 | 791 nM |
| COc1ccc2nc3cc(Cl)ccc3c(NCc3ccccc3)c2c1 | 866 nM |
| COc1c(C2CCN(CCCCNC(=O)c3ccc(-c4ccc(C#N)cc4)cc3)CC2)cc(Cl)c2c1CCCC2 | 776 nM |
| O=C(NCCCCCN1CCC(c2c[nH]c3ccccc23)CC1)c1ccc(-c2ccccc2)nc1 | 1020 nM |
| CCN(CCCN1CCCC1)c1cc(C)nc(Nc2ccc(Cl)cc2)n1 | 344 nM |
| Cc1cc(C(F)(F)F)n2nc(C(=O)N(Cc3cncn3Cc3ccccc3F)CC3CC3)cc2n1 | 956 nM |
| N=C1N=C(N)NC2(CCCCC2)N1OCCCOc1cc(Cl)c(Cl)cc1Cl | 3.2 nM |
| CCOC(=O)C(=CNc1ccc(Cc2cnc(N)nc2N)cc1CC)C(=O)OCC | 1140 nM |
| COc1cc(Nc2nccc(N3CCC(NC(=O)Nc4cccc(C(C)=O)c4)C3)n2)cc(OC)c1OC (stereo not drawn) | 973 nM |
| O=C(/C=C/c1ccc(Cl)cc1)NCCCCCN1CCCN(C(=O)Nc2ccc(F)c(Cl)c2)CC1 | 781 nM |
| CC(Cc1ccc(OCCOc2ccccc2)cc1)NCC(O)c1cccc(Cl)c1 (stereo not drawn) | 1040 nM |
| O=C1OC2(CN1CC1CCN(Cc3ccc(O)c(Cl)c3)CC1)c1ccccc1-c1ccccc12 | 756 nM |
| CCC(C)NC(=O)CN1CN(c2ccccc2)C2(CCN(C(=O)c3ccc4ccccc4c3)CC2)C1=O (stereo not drawn) | 627 nM |
| CN1CCC(Oc2ccc(CN3CC[C@H](NC(=O)c4ccc(Cl)c(Cl)c4)C3)c3ccccc23)C1 (stereo partly drawn) | 876 nM |
| COc1ccc(-c2nc(-c3ccc([N+](=O)[O-])cc3)no2)cc1OC | 409 nM |

| Structure (SMILES) | XC50 |
| --- | --- |
| N#Cc1c(N2CCN(c3ccc(F)cc3)CC2)nc(N)c2c(N)nc3c(c12)CC(=O)N3C1CC1 | 837 nM |
| CC(C)(C)c1ccc(CN2CCC(CNC(=O)c3cc(-c4cccc(Cl)c4)cs3)C2)cc1 (stereo not drawn) | 1160 nM |
| COc1cc(NC(=O)N2CCc3ccc(OCCN(C(C)C)C(C)C)cc32)cc(C(F)(F)F)c1 | 186 nM |
| CC(C)=CCc1c(-c2ccc(O)cc2O)oc2c3c(cc(O)c2c1=O)OC(C)(C)C=C3 [MORUSIN] | 977 nM |
| Cc1cc(N[C@@H](Cc2ccccc2)C(=O)NCc2cccc(F)c2)nc(NCCc2ccccc2)n1 | 1020 nM |
| O=C(CCc1c[nH]cn1)Nc1cccc(-c2ccc(-c3nc4ccccc4[nH]3)cc2)c1 | 651 nM |
| CS(=O)(=O)NCCCNCc1cccc(-c2ccc(-c3nc4cc(C(F)(F)F)ccc4[nH]3)s2)c1 | 880 nM |
| Nc1c2c(nc3ccc(NC(=O)c4ccc([N+](=O)[O-])cc4)cc13)CCCC2 | 237 nM |
| COC(=O)c1ccc(CC(C)NCC(O)c2ccc3ccc4ccccc4c3c2)cc1 (stereo not drawn) | 223 nM |
| CS(=O)(=O)CCCNCc1ccc(-c2cc3c(Nc4ccc(OCc5ccccc5)cc4)ncnc3cn2)o1 | 650 nM |
| CC(CN(C)C)C(=O)Nc1cccc(-c2ccc(-c3nc4cc(F)ccc4[nH]3)cc2)c1 (stereo not drawn) | 653 nM |
| CC(C)(C)OC(=O)C1CCCN(Cc2ccc(-c3cccc(-c4nc5ccccc5[nH]4)c3)cc2)C1 (stereo not drawn) | 358 nM |
| COc1ccc(-c2ccc(S(=O)(=O)Nc3cc4c(cc3OC(C)C)CCN(C)CC4)cc2)cc1 | 686 nM |
| CC(C)C[C@@H]1C(=O)N[C@H](C2Cc3ccccc3C2)C(=O)N1[C@@H](C(=O)O)c1ccc(F)cc1F | 836 nM |
| O=C(Nc1cccc(-c2ccc(-c3nc4ccccc4[nH]3)cc2)c1)c1csnn1 | 1070 nM |
| COc1ccc2[nH]c(C(=O)Nc3ccc4[nH]c(-c5ccccc5)nc4c3)cc2c1 | 834 nM |
| CC(=O)Nc1ccc(CN2CCC(N(C)c3cc(NC(=O)c4ccc(F)cc4)ccn3)CC2)cc1 | 1120 nM |
| N=C(N)c1ccc(C=Cc2ccc(C(=N)N)cc2O)cc1 | 103 nM |
| O=C(NCCN1CCCC1)c1cccc(-c2ccc(-c3nc4cc(C(F)(F)F)ccc4[nH]3)cc2)c1 | 752 nM |
| Cc1cc(C(=O)OCC(=O)Nc2c(C)n(C)n(-c3ccccc3)c2=O)c(C)n1-c1ccc(F)cc1 | 53.9 nM |
| O=C(Nc1cccc(C(F)(F)F)c1)c1ccc(S(=O)(=O)NC2CCN(CC3CCCCC3)CC2)cc1 | 1160 nM |
| Cc1[nH]c2ccc(NS(C)(=O)=O)cc2c1C1CCN(CC2CCN(C(=O)/C=C/c3ccc(Cl)c(Cl)c3)CC2)CC1 | 684 nM |
| Nc1nc(N)c2cc(CNc3ccc(Cl)c(Cl)c3)ccc2n1 | 1020 nM |

| Structure (SMILES) | XC50 |
| --- | --- |
| O=C1C(c2ccccc2)=C(Nc2ccc([N+](=O)[O-])cc2)c2ccccc21 | 871 nM |
| Cc1cccc2nc(-c3ccc(-c4ccc(NC(=O)C(=O)c5cccn5C)cc4)cc3)[nH]c12 | 819 nM |
| Cc1cc(C(=O)Nc2ccc3c(c2)CCN3C2CCN(Cc3ccc4nsnc4c3)C2)no1 (stereo not drawn) | 641 nM |
| CCCCCCOc1ccc(C(=O)NCCCC2CCCN(CCCCCNC(=O)C=Cc3ccc(Cl)c(Cl)c3)C2)cc1 (stereo not drawn) | 703 nM |
| N#Cc1ccc(-c2ccc(C(=O)Nc3ccc4c(c3)CCN(C3CCC3)CC4)nc2)cc1 | 696 nM |
| COc1cc(NCC(C)CNCc2cn(Cc3ccccc3)c3ccccc23)nc2ccccc12 (stereo not drawn) | 633 nM |
| O=C(NCCN1CCOCC1)c1ccc(CNC(=O)c2ccc(O)c(-c3ccc(Cl)c(Cl)c3)c2)cc1 | 929 nM |
| CCC(C)NS(=O)(=O)c1ccc2nc(Nc3ccc(C)c(Cl)c3)n([C@H](C)C(C)(C)C)c2c1 (stereo partly drawn) | 381 nM |
| COc1ccc2nccc([C@@H](O)CN3CCC(NC(=O)COc4nc(SCc5ccc(F)cc5)nc5c4CCC5)CC3)c2c1 | 595 nM |
| Cc1cnc(C(=O)Nc2cccc(-c3cccc(-c4nc5cc(F)ccc5[nH]4)c3)c2)cn1 | 771 nM |
| Cc1ccc(/C=C/C(=O)NC2CCC(N3CCC(c4ccccc4C)CC3)CC2)cc1F (stereo not drawn) | 1040 nM |
| Cc1ccc2nc(C)cc(N/N=C/c3ccc([N+](=O)[O-])o3)c2c1 | 751 nM |
| CCOc1ccc(NC(=O)c2cccc(CN3CCCN(Cc4cccc(O)c4)CC3)c2)cc1 | 1080 nM |
| COc1ccc(-c2c(-c3ccc(OCc4ccccc4)cc3O)n[nH]c2C(F)(F)F)cc1 | 1170 nM |
| CCCCCCOc1ccc(C(=O)N(Cc2ccccc2)c2c(-c3ccccc3)nc3cc(C)ccn23)cc1 | 774 nM |
| Cc1n[nH]c2cc(Nc3ccnc(Nc4ccc(CN5CCOCC5)cc4)n3)ccc12 | 950 nM |
| Cc1ccc2[nH]c(-c3cc(-c4cccc(CCN5CCOCC5)c4)cnc3N)nc2c1 | 170 nM |
| O=C(Nc1cccc(OC2CCN(Cc3ccccc3)CC2)c1)Nc1cccc([N+](=O)[O-])c1 | 783 nM |
| COc1ccc2ncc(F)c(CCN3CCC[C@H](CNCc4ccc5c(n4)NC(=O)CS5)C3)c2n1 | 970 nM |
| CN(C)CCOc1cc(NC(=O)c2ccc(-c3ccc(Cl)cc3Cl)cc2)ccc1-c1ccccc1 | 906 nM |
| CCOc1ccc(C2CCN(CCCCNC(=O)c3ccc(NC(=O)c4ccc(Cl)cc4)cc3)CC2)c(CC)c1 | 786 nM |
| O=C(NC1CCC(N2CCC3(CC2)C(=O)NCN3c2ccccc2)CC1)c1cc2ccccc2[nH]1 (stereo not drawn) | 679 nM |
| O=C(/C=C/c1ccc(F)c(C(F)(F)F)c1)N1CCC(CN2CCC(c3c[nH]c4ccccc34)CC2)CC1 | 917 nM |
